What was measured:
[1] = target: GSK3α (Homo sapiens, UniProt P49840); test: radioactive […]-ATP in vitro kinase assay, 10-dose IC50, […] ATP; type: biochemical
[2] = target: GSK3β (Homo sapiens, UniProt P49841); test: as above; type: biochemical
Chain of GSK3β (P49841 whole entry): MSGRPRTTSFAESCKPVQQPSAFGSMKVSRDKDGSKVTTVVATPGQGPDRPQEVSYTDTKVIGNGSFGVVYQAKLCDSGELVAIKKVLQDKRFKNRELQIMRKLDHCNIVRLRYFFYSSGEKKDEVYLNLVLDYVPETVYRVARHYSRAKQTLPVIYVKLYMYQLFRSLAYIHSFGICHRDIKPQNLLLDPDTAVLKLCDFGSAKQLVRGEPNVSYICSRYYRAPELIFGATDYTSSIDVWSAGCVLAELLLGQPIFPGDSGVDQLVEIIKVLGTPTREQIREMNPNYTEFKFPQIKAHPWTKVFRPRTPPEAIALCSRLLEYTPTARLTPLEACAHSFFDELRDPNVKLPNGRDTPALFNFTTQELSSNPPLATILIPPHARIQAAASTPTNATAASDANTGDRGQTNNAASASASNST

Chain of GSK3α (P49840 2-483): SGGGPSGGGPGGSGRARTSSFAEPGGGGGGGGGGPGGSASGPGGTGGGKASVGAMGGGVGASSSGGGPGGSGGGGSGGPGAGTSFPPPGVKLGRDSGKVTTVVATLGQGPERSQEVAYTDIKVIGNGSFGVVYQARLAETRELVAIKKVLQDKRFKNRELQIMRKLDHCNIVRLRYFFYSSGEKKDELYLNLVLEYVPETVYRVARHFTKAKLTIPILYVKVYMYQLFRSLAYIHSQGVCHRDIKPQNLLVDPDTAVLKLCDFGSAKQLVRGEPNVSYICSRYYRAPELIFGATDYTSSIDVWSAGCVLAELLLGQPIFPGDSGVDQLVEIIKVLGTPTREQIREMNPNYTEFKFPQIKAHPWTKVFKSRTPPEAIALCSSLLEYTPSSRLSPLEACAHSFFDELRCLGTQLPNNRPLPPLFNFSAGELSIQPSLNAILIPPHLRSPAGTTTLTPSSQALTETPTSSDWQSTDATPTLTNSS

IC50 [1]: 415 nM | IC50 [2]: 521 nM
Substance: GS87
